# Measurements from US8592435B2, “Nitrogen-containing six-membered aromatic ring derivatives and pharmaceutical products containing the same” (Daiichi Sankyo Company, Limited, priority 2007, dated 2013).
# Legend:
# hippocampal neurons = assay: Test Example 1: ability to promote axonal outgrowth; format: cell-based, Wistar rats; details: Hippocampal neuron, 216 h; Compound Conc. = 3 μM; % of control; rat hippocampal neurons, day 9; read-out: Promotion of axonal outgrowth (%)
# In short: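 Embryonic day-18 Wistar rat hippocampal neurons were cultured at 37° C, treated with AraC from day 3, and given compound at 3 μM and 0.3 μM on days 3 and 7. On day 9, GAP-43-stained axons were quantified and expressed as % of control; bFGF-based threshold is 120.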
# [1] = tested on: myocardial infarction model (LAD occluded); assay: Test Example 5: myocardial infarction model in rats; format: in vivo, Slc:SD rats; details: oral once daily 0.01, 0.1 or 1.0 mg/kg for 28 days, 4 weeks after myocardial infarction
# Method: According to the method of Masakatsu Wakeno et al. [Circulation 114: 1923-1932 (2006)], 10-week-old male Slc:SD rats were anesthetized with pentobarbital and cut open in the chest area. The left anterior descending coronary artery (LAD) was completely occluded to establish a myocardial infarction model. Sham group underwent only thoracic surgical procedure.
# The test compound used was Example Compound 65, which was orally administered once daily at a dose of 0.01 mg/kg, 0.1 mg/kg or 1.0 mg/kg for 28 days starting from the day of establishment of myocardial infarction model (after awakening from anesthesia).
# 4 weeks after establishing myocardial infarction, animals were anesthetized with pentobarbital and monitored for their cardiachemodynamics using a mirror catheter. Subsequently, blood samples were collected from the abdominal aorta, wet lung weight was measured, and plasma BNP levels after arterial blood sampling were measured (RIA).
# FIGS. 7, 8, 9 and 10 show the results of LVEDP, LVdP/dt max, lung weight and plasma […] levels, respectively.
# #: P<0.05, ##: P<0.01 between sham and control by Student's t-test
# *: P<0.05, **: P<0.01: vs control by Dunnett's test
# [2] = tested on: microsphere (micro-embolism) model; assay: Test Example 6: rat microsphere (micro-embolism) model; format: in vivo, Crl:CD(SD) rats; details: rats, oral 1.0 mg/kg once daily for 10 days (Compound 65 also 0.1 mg/kg); 2 weeks after surgery
# From the text: According to the method of Ichiro Date et al. [Journal of Neuroscience Research 78; 442-453 (2004)], 8-week-old male Crl:CD(SD) rats were used. Animals were anesthetized with halothane and midline incision was made. Right carotid artery was separated and a thread was looped around the common carotid artery and external carotid artery. The pterygopalatine artery was temporarily clipped with an aneurysm clip. The blood flow through the common carotid artery and external carotid artery was temporarily interrupted and 0.1 mL of a microsphere suspension composed of microspheres dispersed in a 30% sucrose solution (1800 microspheres/0.1 mL) was injected into the common carotid artery. After injection of the suspension, the puncture of the injection needle was filled with instant glue while the blood flow was interrupted. The blood flow was then restored and the surgical wound was sutured. Neurological symptoms were observed the day following the surgery. The animals were assigned to each treated group at random with respect to the measurements of neurological symptoms, the decrease in body weight from the previous day, and the body weight on that day.
# The test compounds used were Example Compound 65, 108, 130, 135 and 137, each of which was administered at a dose of 1.0 mg/kg. Example Compound 65 was administered also at a dose of 0.1 mg/kg. Each compound was orally administered once daily for 10 days starting from the following day of the surgery. Coordinated motor functions were measured 5 times on an accelerated rota-rod (4 to 40 rpm/5 min) 2 weeks after the surgery.
# Specifically, FIGS. 11 to 15 show the effect of different compounds 2 weeks after the microsphere injection (rota-rod test standard parameter). The figures show the results of rota-rod tests 2 weeks after the ischemic event in which each compound was orally administered at 1.0 mg/kg once daily for 10 days (Example Compound 65 was administered at 0.1 mg/kg or 1.0 mg/kg). What is shown in the figures is the total time of the 5 measurements on rota-rod as a standard parameter.
# ***: p<0.0001, Dunnett's multiple range test vs. Vehicle.
# [3] = tested on: spinal cord injury (SCI) model; assay: Test Example 7: spinal cord injury (SCI) model in rats; format: in vivo, Slc: SD rats; details: 1 mg/kg through the tail vein once daily for 10 days, once a week until 5 weeks after surgery
# From the text: According to the method of Venkata Ramesh Dasari et al. [J Neurotrauma. 2007 February; 24(2):391-410], 9-week-old female Slc: SD rats were used. Animals were anesthetized with pentobarbital and incised along the dorsal midline. After the spinal column was exposed by dorsal midline incision, the 9th thoracic vertebral arch was removed with bone scissors, paying attention not to damage the dura mater. The upper and lower bones were held in place to position the exposed spinal site just under the impactor device (where impact is applied) and then a 200-kdyn force was applied to the site. Tonic extension of the lower limbs by the spinal cord injury was checked.
# The test compound used was Example Compound 65, which was administered at a dose of 1 mg/kg. Specifically, the compound was administered through the tail vein once daily for 10 days, starting from 90 min after the surgery. The motor function of lower limb was evaluated by BBB score (Basso D M, Beattie M S, Bresnahan J C: J Neurotrauma. 1995; 12:1-21) once a week until 5 weeks after surgery.
smiles,measurement,setting,value
"Cc1nc(OCC(=O)N(C)C2CCN(Cc3ccccc3)CC2)nc(C)c1N [Compound 65, 2-(5-amino-4,6-dimethylpyrimidine-2-yloxy)-N-(1-benzylpiperidine-4-yl)-N-methylacetamide]",activity at 3 µM,hippocampal neurons,134%
same,end-diastolic pressure (LVEDP),[1],suppressed
same,maximum left ventricular contraction and diastolic velocity (LVdP/dt max),[1],suppressed the decrease
same,wet lung weight,[1],suppressed
same,plasma BNP levels,[1]; RIA,suppressed the increase
same,"coordinated motor functions, total time of 5 measurements on rota-rod",[2],highly effective in ameliorating ischemic cerebral infarction
same,motor function of lower limb (BBB score),[3],highly effective in ameliorating spinal cord injury
